Our source for the Activity values is ChEMBL document CHEMBL1151661, “Inhibitory effect of tannins on reverse transcriptase from RNA tumor virus” (J Nat Prod, 1985).

What all share (parameters): scale not given: the % may be the effect or the level left
The test system of assay [1] is Avian myeloblastosis virus. The experiment in a line: Inhibition of AMV reverse transcriptase activity assessed as incorporation of dGMP in poly(rC)-oligo(dG) at 100 uM.
For assay [2], the system named is Avian myeloblastosis virus. Kind of assay: Inhibition of AMV reverse transcriptase activity assessed as incorporation of dGMP in poly(rC)-oligo(dG) at 1000 uM.
Assay [3] has as its system Avian myeloblastosis virus. The experiment in a line: Inhibition of AMV reverse transcriptase activity assessed as incorporation of dTMP in poly(rA)-oligo(dT) at 1 uM.
In assay [4] the test system is Avian myeloblastosis virus. Kind of assay: Inhibition of AMV reverse transcriptase activity assessed as incorporation of dTMP in poly(rA)-oligo(dT) at 10 uM.
The test system of assay [5] is Avian myeloblastosis virus. Kind of assay: Inhibition of AMV reverse transcriptase activity assessed as incorporation of dTMP in poly(rA)-oligo(dT) at 100 uM.
The subject of assay [6] is Avian myeloblastosis virus. Kind of assay: Inhibition of AMV reverse transcriptase activity assessed as incorporation of dTMP in poly(rA)-oligo(dT) at 1000 uM.
The subject of assay [7] is Avian myeloblastosis virus. The experiment in a line: Inhibition of AMV reverse transcriptase activity assessed as incorporation of dGMP in poly(rC)-oligo(dG) at 0.1 uM.
Assay [8] deals with Avian myeloblastosis virus. The experiment in a line: Inhibition of AMV reverse transcriptase activity assessed as incorporation of dGMP in poly(rC)-oligo(dG) at 1 uM.
Assay [9] relates to Avian myeloblastosis virus. Kind of assay: Inhibition of AMV reverse transcriptase activity assessed as incorporation of dGMP in poly(rC)-oligo(dG) at 10 uM.
Assay [10] concerns Avian myeloblastosis virus. Kind of assay: Inhibition of AMV reverse transcriptase activity assessed as incorporation of dTMP in poly(rA)-oligo(dT) at 0.1 uM.

As to `O=C[C@@H]1OC(=O)c2c3c(O)c(O)c(O)c2-c2c(cc(O)c(O)c2O)C(=O)O[C@H]1[C@@H]1OC(=O)c2c(c(O)c(O)c(O)c2-c2c(cc(O)c(O)c2O)C(=O)O[C@H]1COC(=O)c1cc(O)c(O)c(O)c1)O[C@H]1[C@@H]2OC(=O)c4cc(O)c(O)c(O)c4-c4c(cc(O)c(O)c4O)C(=O)O[C@H]2[C@H](OC(=O)c2cc(O)c(O)c(O)c2)O[C@@H]1CO3`, the Activity in assay [1] was found to be 14%; in assay [2], 20%; in assay [3], 24%; in assay [4] it was 4%; in assay [5], 5%; in [6] it was 3%. The Activity in [7] worked out at 106%; in assay [8], 73%; in [9] it was 22%; in assay [10], 66%.
Regarding `O=C(O[C@@H]1O[C@@H]2COC(=O)c3cc(O)c(O)c(O)c3-c3c(cc(O)c(O)c3O)C(=O)O[C@H]([C@H]1O)[C@@H]2O)c1cc(O)c(O)c(O)c1`, the Activity stood at 30% in assay [1]; 0% in assay [2]; 92% in [3]; 88% in [4]; 25% in assay [5]; 3% in assay [6]. The Activity in assay [7] turned out to be 92%; in [8], 72%; in assay [9] it was 64%; in [10], 88%.
On to `O=C(O[C@@H]1O[C@@H]2COC(=O)c3cc(Oc4c(C(=O)O[C@@H]5O[C@@H]6COC(=O)c7cc(O)c(O)c(O)c7-c7c(cc(O)c(O)c7O)C(=O)O[C@H]6[C@H](OC(=O)c6cc(O)c(O)c(O)c6)[C@H]5OC(=O)c5cc(O)c(O)c(O)c5)cc(O)c(O)c4O)c(O)c(O)c3-c3c(cc(O)c(O)c3O)C(=O)O[C@H]2[C@H](OC(=O)c2cc(O)c(O)c(O)c2)[C@H]1OC(=O)c1cc(O)c(O)c(O)c1)c1cc(O)c(O)c(O)c1`, for which the Activity came out at 12% in assay [1]; 2% in assay [2]; 16% in [3]; 7% in assay [4]; 5% in assay [5]; 6% in assay [6]. In addition, the Activity was 111% in assay [7], 54% in assay [8], 12% in [9] and 55% in [10].
In the case of `O=C1O[C@@H]2[C@@H](OC(=O)c3cc(O)c(O)c(O)c3-c3c1cc(O)c(O)c3O)[C@H](O)O[C@@H]1COC(=O)c3cc(O)c(O)c(O)c3-c3c(O)c(O)c4oc(=O)c5c(c(O)c(O)c6oc(=O)c3c4c65)-c3c(cc(O)c(O)c3O)C(=O)O[C@@H]21`, the Activity in assay [1] stood at 9%; in assay [2] it was 4%; in [3], 22%; in [4], 19%; in [5] it was 11%; in assay [6], 2%. The Activity in assay [7] turned out to be 85%; in assay [8] it was 76%; in [9], 18%; in [10], 85%.
With `O=C(O[C@@H]1O[C@@H]2COC(=O)c3cc(O)c(O)c(O)c3-c3c(cc(O)c(O)c3O)C(=O)O[C@H]2[C@H](OC(=O)c2cc(O)c(O)c(O)c2)[C@H]1OC(=O)c1cc(O)c(O)c(O)c1)c1cc(O)c(O)c(Oc2c(C(=O)O[C@H]3O[C@@H]4COC(=O)c5cc(O)c(O)c(O)c5-c5c(cc(O)c(O)c5O)C(=O)O[C@H]4[C@H](OC(=O)c4cc(O)c(O)c(O)c4)[C@H]3OC(=O)c3cc(O)c(O)c(O)c3)cc(O)c(O)c2O)c1`, the Activity is 8% in assay [1]; 1% in assay [2]; 25% in [3]; 11% in assay [4]; 4% in assay [5]; 1% in assay [6]. In addition, the Activity in assay [7] stood at 102%; in [8] it was 68%; in [9], 13%; in [10], 73%.
As to `O=c1oc2c(O)c(O)cc3c(=O)oc4c(O)c(O)cc1c4c23`, the Activity was determined as 20% in [1]; 3% in assay [2]; 77% in [3]; 45% in assay [4]; 18% in assay [5]; 0% in assay [6]. Further, the Activity came out at 71% in assay [7], 80% in assay [8], 49% in assay [9] and 93% in assay [10].
On to `O=C(O)C[C@H]1C(=O)O[C@H]2[C@H](OC(=O)c3cc(O)c(O)c(O)c3)[C@@H](OC(=O)c3cc(O)c(O)c4c3[C@H]1[C@H](O)C(=O)O4)[C@H](OC(=O)c1cc(O)c(O)c(O)c1)O[C@@H]2COC(=O)c1cc(O)c(O)c(O)c1`, for which the Activity in assay [1] is 27%; in [2], 1%; in [3], 71%; in [4], 22%; in assay [5], 24%; in [6] it was 8%. Moreover, the Activity in [7] amounted to 75%; in assay [8] it was 67%; in assay [9], 46%; in assay [10] it was 109%.
Regarding `O=C1OC[C@H]2O[C@@H](O)[C@H](O)[C@@H](O)[C@@H]2OC(=O)c2cc(O)c(O)c(O)c2-c2c(O)c(O)c3oc(=O)c4c(c(O)c(O)c5oc(=O)c2c3c54)-c2c1cc(O)c(O)c2O`, the Activity turned out to be 31% in assay [1]; 6% in [2]; 62% in [3]; 35% in assay [4]; 8% in assay [5]; 1% in [6]. In addition, the Activity is 105% in assay [7], 109% in assay [8], 64% in assay [9] and 119% in assay [10].
On to `O=C(OC[C@H]1O[C@@H](OC(=O)c2cc(O)c(O)c(O)c2)[C@H](OC(=O)c2cc(O)c(O)c(O)c2)[C@@H](OC(=O)c2cc(O)c(O)c(O)c2)[C@@H]1OC(=O)c1cc(O)c(O)c(O)c1)c1cc(O)c(O)c(O)c1`, for which the Activity turned out to be 27% in [1]; 15% in [2]; 39% in assay [3]; 30% in [4]; 25% in assay [5]; 7% in assay [6]. The Activity in assay [7] was found to be 80%; in [8], 62%; in [9], 44%; in assay [10], 67%.
Regarding `Oc1cc(O)c2c(c1)O[C@H](c1ccc(O)c(O)c1)[C@H](O)[C@H]2c1c(O)cc(O)c2c1O[C@H](c1ccc(O)c(O)c1)[C@H](O)C2`, the Activity worked out at 64% in [1]; 9% in [2]; 116% in assay [3]; 97% in assay [4]; 98% in [5]; 55% in assay [6]. Further, the Activity in [7] was determined as 85%; in [8] it was 93%; in assay [9], 80%; in assay [10], 102%.
On to `O=C(O)c1cc(O)c(O)c(O)c1`, for which the Activity in [1] was determined as 91%; in assay [2], 98%; in [3], 93%; in assay [4], 75%; in assay [5], 75%; in assay [6], 78%. The Activity in assay [7] worked out at 122%; in assay [8], 103%; in assay [9], 99%; in [10], 84%.
Regarding `COc1cc2c[n+](C)c3c4cc5c(cc4ccc3c2cc1OC)OCO5`, the Activity in assay [1] was 5%; in assay [2] it was 2%; in [3], 102%; in assay [4], 11%; in assay [5], 1%; in assay [6], 1%. Moreover, the Activity stood at 116% in [7], 85% in assay [8], 88% in assay [9] and 85% in assay [10].
`O=C[C@H](OC(=O)c1cc(O)c(O)c(O)c1)[C@@H](OC(=O)c1cc(O)c(O)c(O)c1)[C@@H]1OC(=O)c2cc(O)c(O)c(O)c2-c2c(cc(Oc3c(C(=O)O[C@@H](C=O)[C@@H](OC(=O)c4cc(O)c(O)c(O)c4)[C@@H]4OC(=O)c5cc(O)c(O)c(O)c5-c5c(cc(O)c(O)c5O)C(=O)OC[C@H]4O)cc(O)c(O)c3O)c(O)c2O)C(=O)OC[C@H]1O`: the Activity in assay [1] is 10%; in assay [2], 15%; in assay [3] it was 19%; in assay [4], 4%; in assay [5], 6%; in assay [6], 6%. Also, the Activity in assay [7] came out at 105%; in assay [8], 76%; in [9], 22%; in assay [10], 82%.
`O=C(O)C[C@@H]1C(=O)O[C@H]2[C@@H]3OC(=O)c4cc(O)c(O)c(O)c4-c4c(cc(O)c(O)c4O)C(=O)OC[C@H]2O[C@@H](OC(=O)c2cc(O)c(O)c(O)c2)[C@@H]3OC(=O)c2cc(O)c(O)c3c2[C@H]1[C@H](O)C(=O)O3`: the Activity was 68% in assay [1]; 8% in assay [2]; 90% in [3]; 48% in assay [4]; 31% in assay [5]; 6% in assay [6]. Also, the Activity was determined as 94% in [7], 67% in assay [8], 74% in [9] and 106% in [10].
